Experimental data as given in patent publication US20230151309A1, “PLANT-BASED HYDROALCOHOLIC FORMULATIONS FOR IMPROVING LIVER HEALTH” (priority 2021, published 2023).
“Also recorded” adds a separate entry of the source.

Key:
intestinal tissue = experiment: Intestinal tissue viability by MTT assay (HuDMOP); type: cell-based, human; conditions: 100 μL, 24 hr, % viable vs. vehicle control
Method: (§1) The model consisted of human 3D epidermal model (Epiltestinal tissue from MarTek) linked to HepG2 cells (Liver) linked by unidirectional simulated blood flow. Simulated blood consisted of saline with human serum albumin.
Diluted ethanol (EtOH) alone or a composition of the present invention diluted to the same level as the EtOH alone test are applied to the apical side of the intestine chamber at the start of the experiment. […] The health of the intestinal tissue was measured with a MTT assay. Pure EGCG was also applied as a control. Tissues were dosed with 100 μL of the solutions and were incubated at 37° C. with 5% CO2 for 24 hr. Cell viability was expressed at % viable vs. vehicle control. Data points represent mean±SEM of N=2 replicates.

[1] = EGCG level in the botanical-infused alcoholic composition by LC-MS/MS (EGCG stability); type: physicochemical; conditions: final alcoholic composition, pH below 4.65
Method: Intracellular ATP was expressed as % ATP vs. Vehicle Control. Data points represent mean±SEM of N=3 replicates.
The samples were tested by LC-MS/MS using a Waters Acquity UPLC system in-line with a Waters Xevo TO-S mass spectrometer via an electrospray interface. An EGCG powdered standard was purchased from Sigma-Aldrich. The EGCG standard was prepared as a 1 mg/mL solution in PBS containing 0.2% ascorbic acid and 0.005% EDTA to calculate the standard curve. EGCG was spiked into intestinal media at a 5% ratio of standard to media (% v/v). EGCG internal standard (IS) was prepared as a 200 ng/ml solution also using PBS containing 0.2% ascorbic acid and 0.005% EDTA. Ten μL of EGCG IS was added to 25 μL of EGCG standard, vortex mixed, and 2× extracted with 350 μL of ethyl acetate. […]
EGCG and samples of the alcoholic beverage composition were separated using a 1.0 mm×100 mm Waters HSS T3 column with 0.3% acetic acid/HO as mobile phase A and 0.3% acetic acid/acetonitrile as mobile. phase B. For gradient elution, initial B was 1%, increased to 95% Bat 2 minutes, 95% Bat 4 minutes, and back to 1% Bat 4.5 minutes. […] Data was analyzed using Waters Targetlynx application software and automatically exported as a CSV file for reporting.
EGCG was detected in the final alcoholic composition. […]

[2] = EGCG kinetics in two-compartment HuDMOP (intestine to liver to perfusate), LC-MS/MS; type: in vitro ADME, human
Excerpt: The human dynamic multiple organ plate (HuDMOP) developed by IONTOX (U.S. Pat. No. 9,631,167 B2) was used for testing. This plate is an accepted and unique state-of-the-art in vitro platform for evaluating drugs and chemicals. The FDA recognizes such in vitro models that provide comparative information of relative toxicity between an FDA approved compound and a new submission or in vitro data that focuses on mechanism. The HuDMOP system allows collection of intestinal absorption data, pharmacokinetic data, safety, and efficacy in a single model and can feature up to 6 organ compartments. Flow between the compartments is controlled through selection of dialysis membrane appropriate for the relevant organ systems, pressures, and membrane areas. The HuDMOP system is also used to generate data to support efficacy claims for botanicals.
Simulated blood consisted of saline with human serum albumin.
Epigallocatechin gallate (EGCG) from the novel composition was used to track its intestinal permeability, its movement into simulated blood and delivery to the liver. EGCG content was measured by LC-MS/MS (FIG. 6).

[3] = test system: Glutathione Reductase (GSR); conditions: liver cells, 12 and 24 hr post exposure
Excerpt: as §1
(§2) Total RNA from the liver cells was obtained following the 12 and 24 hr time points post exposure to look at specific gene expression (NQO1, HMOX1, GSR) that are part of a group that protect the cell from oxidative stress and inflammation. An increase in fold change >2 is typically considered biologically relevant.
RNA was extracted from liver cells using the RNeasy Mini kit along with Proteinase Kand DNase I digestion to remove proteins and gDNA. […] Total RNA was quantified using the NanoDrop 2000. The RNA obtained was used to measure the expression of the above target genes by RT-qPCR. […] TaqMan* fast virus 1-step master mix (Thermo Fisher) was used. One-Step RT-qPCR was performed using the QuantStudio 5 PCR Instrument from Thermo Fisher and by following the manufacturer's recommended cycling protocol. All primer/probe sets were obtained from Thermo Fisher.

Heme oxygenase-1 (HMOX1) = conditions: liver cells, 12 and 24 hr post exposure
Excerpt: as §1
Total RNA from the liver cells was obtained following the 12 and 24 hr time points post exposure to look at specific gene expression (NQO1, HMOX1, GSR) that are part of a group that protect the cell from oxidative stress and inflammation.
RNA was extracted from liver cells using the RNeasy Mini kit along with Proteinase Kand DNase I digestion to remove proteins and gDNA. DNase I was purchased from Qiagen. Total RNA was quantified using the NanoDrop 2000. The RNA obtained was used to measure the expression of the above target genes by RT-qPCR. […] TaqMan* fast virus 1-step master mix (Thermo Fisher) was used. One-Step RT-qPCR was performed using the QuantStudio 5 PCR Instrument from Thermo Fisher and by following the manufacturer's recommended cycling protocol. All primer/probe sets were obtained from Thermo Fisher.

Fa2N-4 cells = conditions: human, 24 h
Method: Maximum Tolerated Dose is indicated as the % EtOH where viability as assayed using ATP levels diminished to below 50%.
Samples of botanical-infused alcoholic composition were prepared as follows. The samples were diluted to in deionized water to bring the alcohol concentration down to 8%. […] Intracellular ATP was expressed as % ATP vs. Vehicle Control. Data points represent mean±SEM of N=3 replicates.
The samples were also diluted to 6 and 2% alcohol.

[4] = test system: NADPH Quinone Dehydrogenase 1 (NQO1); conditions: liver cells, 12 and 24 hr post exposure
Excerpt: as §1, §2
RNA was extracted from liver cells using the RNeasy Mini kit along with Proteinase Kand DNase I digestion to remove proteins and gDNA. DNase I was purchased from Qiagen. Total RNA was quantified using the NanoDrop 2000. The RNA obtained was used to measure the expression of the above target genes by RT-qPCR. 10.10. TaqMan* fast virus 1-step master mix (Thermo Fisher) was used. One-Step RT-qPCR was performed using the QuantStudio 5 PCR Instrument from Thermo Fisher and by following the manufacturer's recommended cycling protocol. All primer/probe sets were obtained from Thermo Fisher.

HepG2 liver cells = experiment: Reactive oxygen species (DCFDA/H2DCFDA Cellular ROS Assay Kit) in liver cells; type: cell-based; conditions: HepG2, 24 hours; ethanol at 2, 3 and 4%
Method: Reactive Oxygen Species were measured using the DCFDA/H2DCFDA Cellular ROS Assay Kit from Abeam.
Liver stress was measured by measuring the amount of reactive oxygen species (ROS) produced after exposure to the alcoholic composition. HepG2 liver cells were plated and grown overnight. […] Then the cells were exposed to the Test articles for 24 hours at 37° C. with 5% CO2. […] Amount of ROS was measured using the DCFDA/H2DCFDA Cellular ROS Assay Kit from Abeam.
Data are expressed as Fold Change vs. Negative Control. Bars represent mean±SEM of three replicate samples.

Row | SMILES | health of the intestinal tissue (cell viability, MTT) (intestinal tissue) | EGCG stability in the composition [1] | time EGCG starts to appear in the lower basolateral chamber ([2]; after application of composition batch 1 to intestinal tissue) | time EGCG appears in the liver ([2]; after applying composition batch 1 to the intestinal tissue) | EGCG in perfusate after processing in the liver compartment ([2]; composition batch 1) | EGCG maximum concentration (Cmax) ([2]; composition batch 1, after passing the intestinal membrane) | time of EGCG peak in basolateral chamber ([2]; composition batch 1, amount constant until 24 hours) | GSR gene expression [3] | HMOX1 gene expression (Heme oxygenase-1 (HMOX1)) | Maximum Tolerated Dose (ethanol causing 50% response in % ATP) (Fa2N-4 cells) | NQO1 gene expression [4] | increase in ROS, Fold Change vs. Negative Control (HepG2 liver cells)
1 | O=C(O[C@@H]1Cc2c(O)cc(O)cc2O[C@@H]1c1cc(O)c(O)c(O)c1)c1cc(O)c(O)c(O)c1 [EGCG, epigallocatechin gallate] | not affected; also recorded: no cytotoxic effect | stable | 2 h | 6 h | remains in the perfusate | about 1400 ng/ml | 12 h |  |  |  |  | 
2 | CCO [ethanol] | not affected |  |  |  |  |  |  | does not produce an increase | induces an increase | 8% | no increase | 
3 | CC(C)(C)OO [positive control, Tert-butyl hydroperoxide] |  |  |  |  |  |  |  |  |  |  |  | 22 fold
